In patent US9140688B2, “Sperm staining and sorting methods” (INGURAN, LLC, priority 2011, dated 2015):

Key:
[1] = test system: deer sperm; assay: Post thaw motility of bulk sorted deer sperm (Example 3); type: cell-based; conditions: 0 HR; RED TALP with 16 μL, Y6 with 14 μL Hoechst 33342
Description: Each of deer and elk were collected in the Tris-egg yolk catch fluid described as a catch media in Example 1, and shipped for sorting.
A portion of each of the deer and the elk were stained by the red food dye No. 40 treatment 40% with 16 μL Hoechst 33342 and the yellow food dye No. 6 treatment with 14 μL Hoechst 33342 as described in Example 1.
Samples were each bulk sorted with the same machine and parameters described in Example 1. Both sorted X and sorted Y sperm were collected into a single catch. The sorted samples were then frozen like those described in Example 1.
Frozen thawed samples were then tested for post thaw motilities and post thaw DNA fragmentation. Post thaw motilities were slightly higher in Elk sorted with a yellow quencher, while a more significant difference existed in progressive motility. In Table 10, post thaw DNA fragmentation in Elk can be seen at about double after 48 hours when red food dye No. 40 is compared to yellow food dye No. 6 as a dead quencher.

[2] = test system: X- and Y-chromosome bearing bovine sperm stained with Hoechst 33342; assay: Split quality: height of peak divided by height of valley (PV), flow cytometry of stained bovine sperm; type: cell-based; conditions: for Height of Peak/Height of Valley: Ex 5; for Height of Peak Divided by Height of Valley: Ex 7, Yellow 6 62 μM, Phenol Red 0 μM
[3] = solvent water; shorter-wavelength local maximum; cited from earlier work
[4] = test system: membrane compromised bovine sperm stained with Hoechst 33342; assay: Dead quenching: dead gate intensity divided by live gate intensity, flow cytometry of stained bovine sperm; type: cell-based; conditions: for Dead Intensity (dead gate intensity divided by live gate intensity): Ex 5
Procedure, shortened: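 Bovine sperm stained with Hoechst 33342 (48–64 μM effective) in pH 7.4 TALP at 34° C for 60 min, then mixed 1:1 with pH 5.60 TALP containing quenching dye and held ~30 min at room temperature. Read on a MoFlo SX sorter; value is dead gate intensity divided by live gate intensity as a percentage, lower meaning more quenching.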

[5] = dye 62.5 μM, Hoechst 12 μL/2 mL
[6] = dye 62.5 μM, Hoechst 14 μL/2 mL
[7] = dye 62.5 μM, Hoechst 16 μL/2 mL
[8] = Ex 6, dye 62.5 μM, resulting pH 6.70, Hoechst 48 μM

## O=S(=O)([O-])c1ccc(N=Nc2c(O)ccc3cc(S(=O)(=O)[O-])ccc23)cc1.[Na+].[Na+] [Yellow 6, Disodium 6-hydroxy-5-[(4-sulfophenyl)azo]-2-naphthalenesulfononate]
[1]
  Post Thaw Motility Deer, Motile: 67.5
  Post Thaw Motility Deer, Progressive: 53.2
[2]; dye 25 μM, Average of 12 and 14 μL series
  Height of Peak/Height of Valley: 2.06
[2]; dye 25 μM, Hoechst 12 μL/2 mL
  Height of Peak/Height of Valley: 2.05
[2]; dye 25 μM, Hoechst 14 μL/2 mL
  Height of Peak/Height of Valley: 2.07
[2]; dye 25 μM, Hoechst 16 μL/2 mL
  Height of Peak/Height of Valley: 1.13
[2]; dye 62.5 μM, Average of 12 and 14 μL series
  Height of Peak/Height of Valley: 1.66
[2]; [5]
  Height of Peak/Height of Valley: 1.70
[2]; [6]
  Height of Peak/Height of Valley: 1.62
[2]; [7]
  Height of Peak/Height of Valley: 1.00
[2]; dye 125 μM, Average of 12 and 14 μL series
  Height of Peak/Height of Valley: 1.77
[2]; dye 125 μM, Hoechst 12 μL/2 mL
  Height of Peak/Height of Valley: 1.73
[2]; dye 125 μM, Hoechst 14 μL/2 mL
  Height of Peak/Height of Valley: 1.80
[2]; dye 125 μM, Hoechst 16 μL/2 mL
  Height of Peak/Height of Valley: 1.26
[2]; [8]
  PV: 1.00
[2]; cells 100 million per mL
  Height of Peak Divided by Height of Valley: 1.26
[2]; cells 150 million per mL
  Height of Peak Divided by Height of Valley: 1.30
[2]; cells 250 million per mL
  Height of Peak Divided by Height of Valley: 1.25
[2]; cells 300 million per mL
  Height of Peak Divided by Height of Valley: 1.23
[2]; Ex 8, Bull 1, Hoechst 44 μM, Y6 50 μM alone
  PV: 1.20
[2]; Ex 8, Bull 1, Hoechst 60 μM, Y6 50 μM alone
  PV: 1.39
[2]; Ex 8, Bull 2, Hoechst 28 μM, Y6 50 μM alone
  PV: 1.64
[2]; Ex 8, Bull 2, Hoechst 44 μM, Y6 50 μM alone
  PV: 1.35
[2]; Ex 8, Bull 2, Hoechst 60 μM, Y6 50 μM alone
  PV: 1.35
[2]; Ex 8, Bull 2, Hoechst 60 μM, Y6 375 μM alone
  PV: 1.72
[2]; Ex 9, Bull 3, Hoechst 60 μM, Y6 50 μM, R3 0 μM, first Y6 series
  PV: 1.26
[2]; Ex 9, Bull 3, Hoechst 60 μM, Y6 50 μM, R3 0 μM, second Y6 series
  PV: 1.32
[3]
  Expected Absorption Maxima: 480 nm
[4]; dye 25 μM, Average of Hoechst levels
  Dead Intensity (dead gate intensity divided by live gate intensity): 71%
[4]; dye 25 μM, Hoechst 12 μL/2 mL
  Dead Intensity (dead gate intensity divided by live gate intensity): 68%
[4]; dye 25 μM, Hoechst 14 μL/2 mL
  Dead Intensity (dead gate intensity divided by live gate intensity): 74%
[4]; dye 25 μM, Hoechst 16 μL/2 mL
  Dead Intensity (dead gate intensity divided by live gate intensity): 70%
[4]; dye 62.5 μM, Average of Hoechst levels
  Dead Intensity (dead gate intensity divided by live gate intensity): 51%
[4]; [5]
  Dead Intensity (dead gate intensity divided by live gate intensity): 50%
[4]; [6]
  Dead Intensity (dead gate intensity divided by live gate intensity): 52%
[4]; [7]
  Dead Intensity (dead gate intensity divided by live gate intensity): 52%
[4]; dye 125 μM, Average of Hoechst levels
  Dead Intensity (dead gate intensity divided by live gate intensity): 39%
[4]; dye 125 μM, Hoechst 12 μL/2 mL
  Dead Intensity (dead gate intensity divided by live gate intensity): 37%
[4]; dye 125 μM, Hoechst 14 μL/2 mL
  Dead Intensity (dead gate intensity divided by live gate intensity): 40%
[4]; dye 125 μM, Hoechst 16 μL/2 mL
  Dead Intensity (dead gate intensity divided by live gate intensity): 40%
[4]; [8]
  Intensity (dead gate): 50%
[4]; three bulls, equal amounts of Hoechst 33342 and of dye
  quenching of the dead population compared to red food dye No. 40 (FIG. 3): superior quenching
